Key:
[1] = Ex vivo fluorescence and microPET imaging of dissected organs; format: in vivo, nude mouse; conditions: organs harvested after microPET scan 4 h post injection
From the text: The dual modality operation of the probe was confirmed. To this end, the animal was euthanized and selected organs harvested for ex vivo fluorescence and microPET imaging (FIG. 4). The fluorescence images were obtained by irradiation of the organs at λ=500 nm. This wavelength was chosen because it falls within the absorption band of [2-F]^+ (see Supporting Information). The fluorescence image was reconstructed based on the emission intensity measured at λ=580±20 nm, a wavelength which is within the fluorescence band of [2-F]^+ (see Supporting Information).
(§1) Obvious bone uptake even at 3 h post injection was not observed, which is consistent with the reported high stability of BODIPY dyes. Next, the dual modality potential of the probe was confirmed. The animal was euthanized and liver, kidneys and muscle were harvested for ex vivo PET/fluorescence imaging. […] We also sectioned the kidney and observed the BODIPY fluorescent signal under microscope.
To cross-evaluate the dual modality tracer ^18F-2-F, ex vivo fluorescence imaging was performed using a Lumina II small-animal imaging system (Xenogen, Alameda, Calif.). After the microPET imaging was done, the nude mouse was sacrificed. […] Fluorescent images were acquired and analyzed using Living Image 2.5 software (Xenogen). The fluorescence images were acquired using a 2-s exposure time (f-stop 4).

[2] = In vivo microPET imaging of normal nude mice; conditions: judged from imaging results
Description: The stability of the resulting ^18F—B compound is critical as free [^18F]-fluoride ions could bind to the bones giving rise to unwanted and interfering background signals.^14 The stability of compound [^18F]-[2-F]^+ was first studied in PBS buffer at pH 7.5 over a period of several hours. […] In order to validate the approach for in vivo PET imaging, [^18F]-[2-F]^+ (prepared via the aqueous route) was injected into normal nude mice that were imaged using a microPET scanner 1 h, 2 h, and 4 h post injection. […] Thus, although probe compound [^18F]-[2-F]^+ lacks any specific targeting functionalities, its accumulation in these organs constitutes a normal phenomenon, in line with its hydrophobic and cationic nature.
as §1
The nude mice were imaged using a microPET R4 rodent model scanner (Concorde Microsystems, Knoxyille, Tenn.) in the prone position. The mice were injected with 50-80 μCi of [^18F]-[2-F]^+ via the tail vein. […]

CC1=CC(C)=[N+]2C1=C(c1ccc([N+](C)(C)C)cc1)c1c(C)cc(C)n1[B-]2(F)c1ccccc1 (stereo not drawn) [[2-F]^+]
uptake in heart, representative bones and muscles, ex vivo [1]: minimal uptake | accumulation of the probe in organs, ex vivo microPET and fluorescence ([1]; excitation 500 nm, emission 580±20 nm): accumulation of the probe in the liver and kidneys | stability in vivo [2]: stable in vivo
